Assay [1] has as its system KB-C-1. Kind of assay: SRB-based cytotoxicity assay. In kind it is cell-based. The settings on record: Homo sapiens, KBC-1; KB-C-1, multidrug naïve. The procedure: 1845B5 and MCF-10A non-cancer breast cell lines were cultured in DME/F12 medium supplemented with 10% fetal bovine serum, antibiotics and growth factors. […] The human small cell lung carcinoma H69 cell line and its multidrug-resistant MRP1-overexpressing isogenic H69AR cell line were purchased from ATCC. […] H69 cells grow as large multi-cell aggregates, making it difficult to accurately count cell numbers. […] The IL-6 dependent bortezomib-resistant ANBL6-BR cell line was further supplemented with 1 ng/ml of IL-6. The MCF10AT1 and MCF10CA1a cell lines are isogenic to the MCF10A cell line, and obtained from Dr. Valerie Weaver at the Center for Bioengineering and Tissue Regeneration, UCSF, CA, USA. […] The drug-resistant cells were cultured in the absence of drug for at least one passage before carrying out experiments. All cells were maintained in a humidified incubator at 37° C. […] Cell line authentication was performed using short tandem repeat (STR) profiling. […] Some wells were treated with 100 μl of 10% trichloroacetic acid (TCA) as a negative control and sham (medium with dimethyl sulfoxide; DMSO) treated cells were used as a positive control. […] TCA was removed and cells were washed with cold tap water, and plate was air-dried, followed by addition of 50 μl of 0.4% SRB staining solution to each well. After 30 minutes incubation, SRB staining solution was removed. Cells were washed with 1% acetic acid solution, and then washed with tap water to remove unbound staining solution, followed by air-drying. 200 μl of 10 mM (pH10.5) trizma base buffer was added to each well to solubilise macromolecules. […] Cell growth (inhibition) was calculated by the following formula: % cells proliferation=[(AT-CT)/(ST-CT)]×100 wherein AT=absorbance of treated cells, CT=absorbance of negative control cells, and ST=absorbance of sham treated cells. […] CI values were determined from four independent experiments.

Assay [2] relates to UC3 (Bladder). Nature of the assay: SRB-based cytotoxicity assay. It is filed as cell-based. Conditions: 72 hours. The essentials:
(§1)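 Following a 16 h settling period, medium containing compound was added for 72 h. Proliferation was then quantified from absorbance at 540 nm of SRB-stained protein, normalised between TCA-treated and sham DMSO controls, and fitted to obtain IC50.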

Assay [3] concerns NCI-H1975 (lung). Nature of the assay: SRB-based cytotoxicity assay. Conditions: Homo sapiens, 72 hours. In kind it is cell-based. In short, it runs like this:
as §1

The test system of assay [4] is U87MG (brain). Kind of assay: SRB-based cytotoxicity assay. In kind it is cell-based. The settings on record: Homo sapiens, U-87 MG, 72 hours. In short, it runs like this: as §1
Assay [5] has as its system A549 (lung). Nature of the assay: SRB-based cytotoxicity assay. It is filed as cell-based. Conditions: Homo sapiens, 72 hours. The essentials:
as §1

In assay [6] the test system is HeLa. Kind of assay: Immunofluorescent staining: centrosomes and chromosome segregation. It is filed as cell-based. The settings on record: for ACS (abnormal chromosome segregation) / Monopolar centrosome: 3 μM. As for the experimental part:
Cells on coverslips placed on the bottom of 35 mm tissue culture plates or 6-well clustered dishes were treated for 12-24 hours with the CTR compounds to be tested. Subsequently, the cells were fixed with 100% methanol for 15 minutes and washed with 1×PBS three times. Cells were then “blocked” with 3% BSA or 1% (v/v) FBS plus 1×PBST (1×PBS buffer containing 0.1% (v/v) Triton X-100 or 0.2% Tween 20), and incubated overnight at 4° C. with primary antibodies, with gentle agitation. Unbound primary antibodies were washed off with PBST, and a secondary antibody was added for 1 hour in the dark. Secondary antibodies were conjugated to Alexa 488 or 568. DNA was counterstained with DRAQ5 or DAPI. Subsequently, coverslips were washed three times with 1×PBST for 10 minutes each, followed by mounting them onto slides with 90% glycerol in 1×PBS. Each slide was visualized with a Carl Zeiss 510 Meta laser scanning microscope or an Axioscope. Image analysis was done with an LSM image examiner equipped with the microscopes (Carl Zeiss, Toronto, ON, Canada).
The cancer-specific increase of mitotic cells in response to CTR-17 was correlated with the accumulation of cells with monopolar centrosomes and abnormal chromosome alignment/segregation (FIG. 11, Table 5). Cells were either sham-treated or treated with 3.0 μM CTR-17 for 12 hours or 24 hours, followed by analyses of cell cycle progression, centrosome abnormalities, and chromosome alignment/segregation. […] The mitotic index was determined by fluorescence microscopic analysis of at least 200 cells for each cell type, and data was expressed as percentage mean±S.E.M. of at least two independent experiments.
Asynchronously growing cells were treated with 1 μM CTR-20 for 24 hours, followed by examining cells arrested in mitosis. The percentage of mitotic cells was calculated based on the examination of at least 250-400 cells. Cells treated with 1 μM CTR-20 for 24 hours on coverslips were fixed with ice-cold methanol, immunostained with an α-tubulin antibody, and then counterstained DNA with DRAQ5 prior to observing by florescent microscopy (Table 6). […] Similarly, cells treated with 1 μM CTR-20 accumulated monopolar centrosomes and defective chromosomal alignment and segregation in a cancer-specific manner.

The test system of assay [7] is MDA-MB-468. Nature of the assay: SRB-based cytotoxicity assay. The settings on record: for IC50: Homo sapiens, MDA-MB-468, SRB, Table 2. It is filed as cell-based, human. As for the experimental part: (§2) For (anti)proliferation assays, 4,000-5,000 cells/well of the 96-well clustered dish were incubated for 16 hours, as described previously (Hu et al., 2008; Skehan et al., 1990). After 16 hours, culture medium was replaced with fresh medium containing different dilutions of test compounds dissolved in DMSO. Some wells were treated with 100 μl of 10% trichloroacetic acid (TCA) as a negative control and sham (medium with dimethyl sulfoxide; DMSO) treated cells were used as a positive control. After 72 hours post-incubation, medium was removed and cells were fixed with 10% TCA at 4° C. for 1 hour. TCA was removed and cells were washed with cold tap water, and plate was air-dried, followed by addition of 50 μl of 0.4% SRB staining solution to each well. After 30 minutes incubation, SRB staining solution was removed. Cells were washed with 1% acetic acid solution, and then washed with tap water to remove unbound staining solution, followed by air-drying. 200 μl of 10 mM (pH10.5) trizma base buffer was added to each well to solubilise macromolecules. SRB stained macromolecules were determined at a 540 nm wavelength using an automated plate reader (Synergy H4 Hybrid Multi-Mode Microplate Reader, BioTek, Winooski, Vt.). Cell growth (inhibition) was calculated by the following formula:
(§3) % cells proliferation=[(AT−CT)/(ST−CT)]×100
(§4) wherein AT=absorbance of treated cells, CT=absorbance of negative control cells, and ST=absorbance of sham treated cells. IC50 values were calculated from sigmoidal dose-response curves generated by two independent biological replicates, with quadruplicate in each set by using Graph Pad Prism v.5.04 software. […] The combinational index (CI) was calculated as described previously (Chou 2006). If the CI values were less than, equal to or more than 1, it indicates a synergistic, additive or antagonistic effect respectively (Chou 2006). CI values were determined from four independent experiments.

Assay [8] relates to MCF-7. Nature of the assay: SRB-based cytotoxicity assay. In kind it is cell-based, human. Conditions: Homo sapiens, MCF7; MCF-7; SRB; Table 2. As for the experimental part:
as §2, §3, §4

For assay [9], the system named is MDA-MB-231. Kind of assay: SRB-based cytotoxicity assay. The settings on record: for IC50: Homo sapiens, MDA-MB-231, SRB, Table 2; for Cell survival rate: MDA-MB231. In kind it is cell-based, human. As for the experimental part: as §2, §3, §4

SMILES strings stand for the structures.

In the case of `COc1ccc2[nH]c(=O)c(/C=C/C(=O)c3ccccc3OC)cc2c1` [CTR-20, (E)-6-Methoxy-3-(3-(2-methoxyphenyl)-3-oxoprop-1-enyl) quinolin-2(1H)-one], the IC50 is 100 ± 20 nM in [1]; 120 ± 30 nM in assay [2]; 390 ± 140 nM in [3]; 490 ± 130 nM in assay [4]; 130 ± 40 nM in assay [5]; 120 ± 20 nM in assay [7]. Further, the 50% inhibitory concentration (IC50) was 140 ± 60 nM in [8] and 120 ± 90 nM in [9]. For the same molecule, in assay [6] (1 μM, 24 hours), the “ACA/S (%) (abnormal chromosome alignment and segregation)” value stood at 34.97 ± 1.96%. Besides, the “Monopolar (%)” value in assay [6] (1 μM, 24 hours) worked out at 48.13 ± 3.34%. Moreover, the Cell survival rate in [9] (single agent 0.1 μM) is 70.86 ± 4.17; in assay [9] (single agent 0.2 μM), 41.07 ± 4.58; in [9] (single agent 0.4 μM), 26.38 ± 4.73.

Turning to `COc1ccccc1C(=O)/C=C/c1cc2ccccc2[nH]c1=O` [CTR-17, (E)-3-(3-(2-Methoxyphenyl)-3-oxoprop-1-enyl)quinolin-2(1H)-one], the IC50 in assay [1] came out at 380 ± 70 nM; in assay [2] it was 390 ± 30 nM; in [3] it was 600 ± 140 nM; in [4], 760 nM; in assay [5], 410 ± 60 nM; in [7], 150 ± 330 nM. In addition, the IC50 in assay [8] amounted to 520 ± 170 nM; in assay [9], 410 ± 20 nM. The “ACS (abnormal chromosome segregation)” value is 20.0 ± 4.5% of total mitotic cells in [6] (12 h post-treatment) and 0.0 ± 0.0% of total mitotic cells in [6] (24 h post-treatment). Moreover, the figures for the Monopolar centrosome in [6] (12 h post-treatment) and in assay [6] (24 h post-treatment) were 80.0 ± 4.5% of total mitotic cells and 100.0 ± 0.0% of total mitotic cells, respectively. Moreover, in [7] (MDA-MB-468 versus MCF-10A), the “preferentially kill cancer over non-cancer cells” value was “up to 26 times”.

One may read the IC50 as the concentration that gives 50% inhibition.

Source of the values: patent publication US20180344725A1, “QUINOLONE CHALCONE COMPOUNDS AND USES THEREOF” (priority 2015, published 2018).
